The values below are quoted from earlier work in patent US20060275294A1, “METHOD OF PREVENTION AND TREATMENT OF AGING, AGE-RELATED DISORDERS AND/OR AGE-RELATED MANIFESTATIONS INCLUDING ATHEROSCLEROSIS, PERIPHERAL VASCULAR DISEASE, CORONARY ARTERY DISEASE, OSTEOPOROSIS, ARTHRITIS, TYPE 2 DIABETES, DEMENTIA, ALZHEIMERS DISEASE AND CANCER” (priority 2002, published 2006).

For one data set, the system named is sIL6R. Conditions: four-day dietary intervention, exchange for LA; cited from earlier work.
The next data set relates to rat models. Conditions: meta-analysis of 13 studies; cited from earlier work.
In data set [1] the test system is esophageal carcinoma cell line CE48T/VGH. The conditions noted are these: cited from earlier work.
In data set [2] the test system is rat vascular smooth muscle cells. Conditions: cited from earlier work.
Data set [3] relates to animals with experimental arthritis. The conditions noted are these: prophylactic or therapeutic treatment; cited from earlier work.
The next data set concerns leukemic cells. Conditions: concentration- and time-dependent; cited from earlier work.
The subject of data set [4] is NOD/SCID mice engrafted with human primary leukemic cells. Conditions: mouse, in vivo; cited from earlier work.
Data set [5] has as its system Zucker lean and fatty rats. The conditions noted are these: 50 mg/kg/day vs vehicle; cited from earlier work.
Data set [6] has as its system patients with type 2 diabetes. Conditions: cited from earlier work.
Data set [7] deals with human T, B and myeloma tumor cells. Conditions: by promoting apoptosis; cited from earlier work.
Data set [8] deals with MCF-7 breast cancer cells. Conditions: absence of estradiol; cited from earlier work.
Data set [9] relates to patients with primary hypercholesterolemia. The conditions noted are these: cited from earlier work.
The test system of the next data set is KK/Ay mice. The conditions noted are these: mouse, in vivo; cited from earlier work.
For data set [10] the following is noted: 80 mg daily; cited from earlier work.
The test system of data set [11] is in-patients with advanced (stage III) Huntington's disease. Conditions: 6 months; cited from earlier work.
For data set [12], the system named is cultured human astrocytes. The conditions noted are these: cited from earlier work.
The next data set concerns T lymphoma cells. The conditions noted are these: cited from earlier work.
Data set [13] has as its system spontaneously hypertensive rats (SHR). Conditions: cited from earlier work.
A further data set has as its system mice. Conditions: cited from earlier work.
Data set [14] deals with experimental diabetic rat model. Conditions: cited from earlier work.
For data set [15] the following is noted: 54 mg/day; cited from earlier work.
In data set [16] the test system is renal cell carcinoma cell line, GRC-1. Conditions: 20 micromol/L, 72 hours; cited from earlier work.
For data set [17], the system named is orthotopic prostate carcinoma model of PC-3 cells in nude mice. The conditions noted are these: cited from earlier work.
Data set [18] has as its system human prostate carcinoma PC-3 cell line. Conditions: cited from earlier work.
For data set [19], the system named is New Zealand White rabbits. Conditions: cited from earlier work.
In data set [20] the test system is three human pancreatic cancer cell types. Conditions: three cell lines; read-out: mean IC(50) proliferation; cited from earlier work.
Data set [21] concerns human breast cancer MCF-7 cells. Conditions: cited from earlier work.
The subject of data set [22] is cultured human pituitary adenoma cells. On the set-up: mean inhibition of thymidine uptake (+/−SD inhibition of basal) / mean inhibition of thymidine uptake: unit of the concentration uncertain. The conditions noted are these: cited from earlier work.
For the next data set, the system named is STAT1 and STAT3. Conditions: cited from earlier work.
In data set [23] the test system is IL-1 beta, IL-6, and TNF-alpha. Conditions: cited from earlier work.
In data set [24] the target is T1, epidermal growth factor receptor tyrosine kinase (Rattus norvegicus, UniProt G3V6K6).
T1 construct: measured thymidine incorporation in epidermal growth factor-stimulated vascular smooth muscle cells; endogenous in cells; host or cells: aortic vascular smooth muscle cells of SHR and normotensive rats
Conditions: SHR vs normotensive Wistar rat cells; cited from earlier work.

In data set [25] the test system is aortic strips isolated from virgin and late pregnant Sprague-Dawley rats. The conditions noted are these: 1,000 pg/ml, cited from earlier work.
The conditions of data set [26]: in vivo, sc; cited from earlier work.

Like-named read-outs stand apart in the source and are kept apart here.

T1 sequence (G3V6K6 25-1209): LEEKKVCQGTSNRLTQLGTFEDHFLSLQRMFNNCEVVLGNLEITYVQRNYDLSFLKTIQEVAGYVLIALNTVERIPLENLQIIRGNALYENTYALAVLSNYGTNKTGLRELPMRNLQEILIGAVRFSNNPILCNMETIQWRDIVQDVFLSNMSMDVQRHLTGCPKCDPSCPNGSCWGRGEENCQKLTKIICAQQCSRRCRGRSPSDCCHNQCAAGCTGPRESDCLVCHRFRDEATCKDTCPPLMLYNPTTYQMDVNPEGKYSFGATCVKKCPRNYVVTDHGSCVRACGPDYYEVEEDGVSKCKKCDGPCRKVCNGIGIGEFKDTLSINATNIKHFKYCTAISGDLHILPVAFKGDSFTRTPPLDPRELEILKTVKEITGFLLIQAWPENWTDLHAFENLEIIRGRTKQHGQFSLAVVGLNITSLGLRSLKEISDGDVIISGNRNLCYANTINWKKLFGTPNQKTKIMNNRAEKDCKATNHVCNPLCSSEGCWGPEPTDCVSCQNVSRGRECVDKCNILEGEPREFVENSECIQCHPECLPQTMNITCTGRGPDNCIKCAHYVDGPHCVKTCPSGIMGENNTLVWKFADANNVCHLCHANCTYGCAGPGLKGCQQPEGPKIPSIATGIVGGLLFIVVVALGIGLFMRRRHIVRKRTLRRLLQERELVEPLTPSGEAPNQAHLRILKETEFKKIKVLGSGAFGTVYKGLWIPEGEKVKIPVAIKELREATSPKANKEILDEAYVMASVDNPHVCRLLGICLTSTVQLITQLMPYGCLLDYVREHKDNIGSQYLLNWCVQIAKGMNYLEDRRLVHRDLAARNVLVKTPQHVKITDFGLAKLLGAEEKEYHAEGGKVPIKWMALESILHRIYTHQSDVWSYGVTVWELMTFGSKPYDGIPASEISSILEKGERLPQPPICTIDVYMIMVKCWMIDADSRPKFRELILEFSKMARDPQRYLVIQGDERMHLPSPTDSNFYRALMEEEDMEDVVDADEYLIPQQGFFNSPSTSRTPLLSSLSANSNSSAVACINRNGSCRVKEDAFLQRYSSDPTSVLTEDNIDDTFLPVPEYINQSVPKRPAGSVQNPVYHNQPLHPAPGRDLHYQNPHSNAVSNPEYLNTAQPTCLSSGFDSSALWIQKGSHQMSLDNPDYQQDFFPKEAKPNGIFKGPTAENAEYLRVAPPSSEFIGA

As for `CC/C=C\C/C=C\C/C=C\CCCCCCCC(=O)O` [ALA, alpha-linolenic acid], the “reduction of fasting sIL6R concentration” value with sIL6R is given as “approximately 11%”. Besides, the “ischemia- and reperfusion-induced arrhythmias (incidence of VT and VF)” value with rat models is recorded as “not”.
With `COc1cccc(-c2cc(=O)c3ccccc3o2)c1N` [PD98059], the “protection of IL-6 against apoptosis” value in data set [1] is recorded as “completely blocked”. The “expression of IL-6 mRNA induced by Ang II” value in data set [2] is given as “completely abolished”.
`O=P(O)(O)C(O)(Cc1cnc2ccccn12)P(=O)(O)O` [YM529]: in data set [3], the “severity of experimental arthritis” value is reported as “suppressed the severity of disease”. In the data set on leukemic cells, the “growth of leukemic cells incl. P-gp over-expressing cell line” value is given as “inhibited the growth”. The survival entry in data set [4] is recorded as “prolonged the survival”.
For the compound `CC(C)c1c(C(=O)Nc2ccccc2)c(-c2ccccc2)c(-c2ccc(F)cc2)n1CC[C@@H](O)C[C@@H](O)CC(=O)O` [atorvastatin], the “increase in glucose infusion rate and glucose disposal (Rd)” value in [5] is listed as “approximately two-fold”. Moreover, the “relative risk reduction in the primary endpoint” value in data set [6] (10 mg daily for four years) is on record as 37%. For the same compound, the “rate reduction of major cardiovascular events” value in data set [6] (10 mg daily vs placebo) was 37%. Further, the “patients with at least one major cardiovascular event” value in data set [6] (10 mg daily, n=1428, median follow-up 3.9 years) is reported as 83. In addition, in [6] (10 mg daily), the “acute coronary heart disease events reduced” value was 36%, the adverse events entry was “No excess of adverse events”, the coronary re-vascularisations reduced is 31% and the death rate reduced is on record as 27%. Also, in [6] (10 mg daily), the “major cardiovascular event rate” value is given as 1.54 per 100 person-years at risk and the “rate of stroke reduced” value is listed as 48%. Besides, the “effect on human T, B and myeloma tumor cells” value in data set [7] is given as “cytotoxic effect”. In addition, in data set [8], the “proliferation of MCF-7 cells” value was “inhibit the proliferation”. Moreover, in [9] (2 weeks), the FMD entry is “higher than baseline”. Moreover, the IL-6 levels result in data set [9] (3 and 9 months vs baseline) was “significantly reduced”. Besides, the sICAM-1 levels entry in data set [9] (FH 80 mg/day, NFH 10 mg/day, 2 weeks to 9 months vs baseline) is on record as “significantly reduced”. In addition, in the data set on KK/Ay mice, the insulin resistance index result is listed as “decreased” and the non-HDL-cholesterol level result is listed as “significantly decreased”. The “carotid IMT” value in data set [10] was “significant IMT regression”.
Consider `CC/C=C\C/C=C\C/C=C\C/C=C\C/C=C\CCCC(=O)OCC` [ethyl-EPA, ethyl-ester of eicosapentaenoic acid], for which the “orofacial component of the Unified Huntington's Disease Rating Scale” value in [11] is on record as “improved”.
Regarding `O=c1c(-c2ccc(O)cc2)coc2cc(O)cc(O)c12` [genistein, 4′,5,7-trihydroxyisoflavone], the “stimulatory effect of PDGF on sAPPalpha” value in [12] was “blocked”. Moreover, in the data set with T lymphoma cells, the “nuclear NF-kappa B levels” value is recorded as “marked reduction”. The “expression of IL-6 mRNA induced by Ang II” value in data set [2] is given as “completely abolished”. Further, the “wall thickness of the basilar artery” value in data set [13] (1 mg/kg chow, 2 months) was “reduced the wall thickness significantly”. Besides, the “vasodilatation induced by ACh and Y-26763” value in [13] was “significantly improved”. In addition, the “serum levels of autoantibodies to collagen II” value in the data set on mice (immunized mice) is on record as “significantly lower”. Besides, the “DTH reaction to oxazolone and granulocyte-mediated response” value with mice (vs control mice) is listed as “significantly suppressed”. Further, the “retinal albumin by Western blot” value in data set [14] (300 mg) is given as “decreased”. Moreover, the “retinal vascular leakage of radiolabeled sucrose” value in data set [14] (150 or 300 mg/kg food, 6 months, vs diabetic control) is “significantly less”. Further, in data set [15], the “attenuating menopause-related bone loss” value was “as effective as hormone replacement therapy”. For the same compound, in [16], the “band of p27, Western blot” value was 65.4+/−4.7 gray scale value; the “cells in G2 phase” value is recorded as 26.2%; the “cells in G(1) phase” value was 73.8%. The “inhibition of primary tumor growth” value in data set [17] (combined with radiation 5 Gy) is 87%. Moreover, the “inhibition of primary tumor growth” value in [17] (genistein alone, 5 mg/d p.o.) is reported as 30%. The “size of lymph nodes” value in [17] (genistein alone) is given as “increased the size of lymph nodes”. Also, the “IL-6- and OM-mediated effects (growth, resistance to etoposide and cisplatin)” value in [18] was “inhibited”. In data set [19] (hyperlipidemic plus genistein diet, 4 and half months), the “average cross sectional area of atherosclerotic lesion” value is listed as 0.997 mm2. In addition, the MMP-3 expression result in data set [19] (western blotting, vs HD group) is given as “reduction”. The IC50 in data set [20] is 223 µM. For the same compound, in [21], the “growth of MCF-7 cells” value was “significantly inhibit the growth”. Also, in data set [22] (74 (unit uncertain)), the “mean inhibition of thymidine uptake (+/−SD inhibition of basal)” value is 61.96+/−18.96%. Also, the “mean inhibition of thymidine uptake” value in data set [22] (740 (unit uncertain)) is on record as 92.65+/−8.59%. Also, in [22] (clinically nonfunctioning adenomas), the “Epidermal growth factor stimulated thymidine uptake” value is on record as “inhibited”. For the same compound, the “CuLDL-induced enhancement of STAT1 and STAT3 Tyr-phosphorylation and DNA-binding activity” value with STAT1 and STAT3 is recorded as “markedly prevented”. For the same compound, in [23] (37 microM), the “LPS-induced increase in IL-1 beta, IL-6, and TNF-alpha mRNA levels” value is listed as “completely or more than 80% blocked”. For the same compound, in [23], the “LPS activation of NF-kappa B” value was “reduced”; the “LPS-induced IL-6 protein synthesis and IL-6 bioactivity” value is on record as “reduced to baseline levels”. Also, the “50% inhibitory dose (IC50) for thymidine incorporation” value in [24] was “higher for the SHR vascular smooth muscle cells”.
Take IL-6: interleukin-6 cytokine: the “enhancement of Phe contraction” value is given as 10.6±0.7 ×104 N/m2 in [25] (pregnant rats) and 7.5±0.4 ×104 N/m2 in data set [25] (virgin rats). In data set [26], the “adverse effects of subcutaneous administration” value is reported as “cardiac arrhythmias, hepatotoxicity”.
